Patent publication US9980943B2, “Methods of treating muscular dystrophy” (BOARD OF REGENTS OF THE NEVADA SYSTEM OF HIGHER EDUCATION, …, priority 2013, dated 2018)

What was measured:
Format in all cases: cell-based, mouse
[1] = tested on: α7 integrin (LacZ reporter in α7βgal+/− myoblasts); assay: Myoblast α7+/LacZ integrin FDG assay (Burkin assay in myoblasts, 96-well); conditions: α7+/LacZ myoblasts, 96-well
[2] = tested on: α7 integrin (LacZ reporter in α7+/LacZ myotubes); assay: Myotube α7 integrin FDG assay (Burkin assay in myotubes, 96-well); conditions: myotubes
[3] = tested on: β-galactosidase in CMV-LacZ C2C12 myotubes; assay: CMV-LacZ secondary screen in C2C12 myotubes (β-Gal stabilizing assay); conditions: C2C12 CMV-LacZ myotubes, fold relative to DMSO
In short: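 β-gal stabilization was measured in C2C12 myoblasts or myotubes stably transfected with a CMV-driven LacZ construct, using the FDG β-gal assay. Compounds were tested in dose-response at 0.5, 1, 5, 10, 20 and 40 μM, with two replicates per point.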

Compound | CMV-LACZ in Myotubes, signal relative to DMSO ([3]; 5 uM) | CMV-LACZ in Myotubes, signal relative to DMSO ([3]; 10 uM) | CMV-LACZ in Myotubes, signal relative to DMSO ([3]; 20 uM) | CMV-LACZ in Myotubes, signal relative to DMSO ([3]; 40 uM) | Burkin Assay in Myoblasts, signal relative to DMSO ([1]; 0.5 uM) | Burkin Assay in Myoblasts, signal relative to DMSO ([1]; 1 uM) | Burkin Assay in Myoblasts, signal relative to DMSO ([1]; 5 uM) | Burkin Assay in Myoblasts, signal relative to DMSO ([1]; 10 uM) | Burkin Assay in Myoblasts, signal relative to DMSO ([1]; 20 uM) | Burkin Assay in Myoblasts, signal relative to DMSO ([1]; 40 uM) | Burkin Assay in Myotubes, α7 integrin LacZ reporter signal relative to DMSO ([2]; 0.5 uM) | Burkin Assay in Myotubes, α7 integrin LacZ reporter signal relative to DMSO ([2]; 1 uM) | Burkin Assay in Myotubes, α7 integrin LacZ reporter signal relative to DMSO ([2]; 5 uM) | Burkin Assay in Myotubes, α7 integrin LacZ reporter signal relative to DMSO ([2]; 10 uM) | Burkin Assay in Myotubes, α7 integrin LacZ reporter signal relative to DMSO ([2]; 20 uM) | Burkin Assay in Myotubes, α7 integrin LacZ reporter signal relative to DMSO ([2]; 40 uM) | other results
Cc1ccc(N(CCC(=O)O)S(=O)(=O)c2cccc(C(F)(F)F)c2)cc1 [MLS000775793-01] | 0.855 | 1.012 | 0.9323 | 1.021 | – | – | – | – | – | – | – | – | – | – | – | – | Burkin Assay in Myoblasts, value relative to DMSO ([1]; 0.5 uM): 1.103; Burkin Assay in Myoblasts, value relative to DMSO ([1]; 1 uM): 1.076; Burkin Assay in Myoblasts, value relative to DMSO ([1]; 5 uM): 1.109; Burkin Assay in Myoblasts, value relative to DMSO ([1]; 10 uM): 1.076; Burkin Assay in Myoblasts, value relative to DMSO ([1]; 20 uM): 0.9292; Burkin Assay in Myoblasts, value relative to DMSO ([1]; 40 uM): 0.9895; Burkin Assay in Myotubes (signal relative to DMSO) ([2]; 0.5 uM): 0.9391; Burkin Assay in Myotubes (signal relative to DMSO) ([2]; 1 uM): 0.8833; Burkin Assay in Myotubes (signal relative to DMSO) ([2]; 5 uM): 0.8722; Burkin Assay in Myotubes (signal relative to DMSO) ([2]; 10 uM): 0.6224; Burkin Assay in Myotubes (signal relative to DMSO) ([2]; 20 uM): 0.9965; Burkin Assay in Myotubes (signal relative to DMSO) ([2]; 40 uM): 0.9508
O=C(O)CCCNC(=O)CCn1nnc2ccccc2c1=O [MLS000806880-01] | 0.9654 | 1.13 | 0.9145 | 1.0655 | 1.097 | 1.129 | 1.009 | 0.9524 | 0.9957 | 1.056 | 0.735 | 0.8731 | 0.9094 | 0.996 | 1.057 | 0.9353 | –
Cc1ccc(NC(=O)C2CCCCC2C(=O)O)cc1C (stereo not shown) [MLS000850824-01] | – | – | – | – | – | – | – | – | – | – | – | – | – | – | – | – | fold induction at 0.5 µM ([1]; Mus musculus, Myoblast, 48 h, 0.5 uM, read-out: Burkin Assay in Myoblasts, value relative to DMSO): 1.17; fold induction at 1 µM ([1]; Mus musculus, Myoblast, 48 h, 1 uM, read-out: Burkin Assay in Myoblasts, value relative to DMSO): 1.27; fold induction at 5 µM ([1]; Mus musculus, Myoblast, 48 h, 5 uM, read-out: Burkin Assay in Myoblasts, value relative to DMSO): 1.08; fold induction at 10 µM ([1]; Mus musculus, Myoblast, 48 h, 10 uM, read-out: Burkin Assay in Myoblasts, value relative to DMSO): 1.08; fold induction at 20 µM ([1]; Mus musculus, Myoblast, 48 h, 20 uM, read-out: Burkin Assay in Myoblasts, value relative to DMSO): 0.986; fold induction at 40 µM ([1]; Mus musculus, Myoblast, 48 h, 40 uM, read-out: Burkin Assay in Myoblasts, value relative to DMSO): 1.06; fold induction at 0.5 µM ([2]; Mus musculus, Myotube, 0.5 uM, read-out: Burkin Assay in Myotubes (signal relative to DMSO)): 0.908; fold induction at 1 µM ([2]; Mus musculus, Myotube, 1 uM, read-out: Burkin Assay in Myotubes (signal relative to DMSO)): 1.09; fold induction at 5 µM ([2]; Mus musculus, Myotube, 5 uM, read-out: Burkin Assay in Myotubes (signal relative to DMSO)): 0.99; fold induction at 10 µM ([2]; Mus musculus, Myotube, 10 uM, read-out: Burkin Assay in Myotubes (signal relative to DMSO)): 1.07; fold induction at 20 µM ([2]; Mus musculus, Myotube, 20 uM, read-out: Burkin Assay in Myotubes (signal relative to DMSO)): 1.14; fold induction at 40 µM ([2]; Mus musculus, Myotube, 40 uM, read-out: Burkin Assay in Myotubes (signal relative to DMSO)): 1.21; fold induction at 5 µM ([3]; Mus musculus, C2C12, read-out: CMV-LACZ in Myotubes, signal relative to DMSO, 5 uM): 0.885; fold induction at 10 µM ([3]; Mus musculus, C2C12, read-out: CMV-LACZ in Myotubes, signal relative to DMSO, 10 uM): 0.992; fold induction at 20 µM ([3]; Mus musculus, C2C12, read-out: CMV-LACZ in Myotubes, signal relative to DMSO, 20 uM): 0.995; fold induction at 40 µM ([3]; Mus musculus, C2C12, read-out: CMV-LACZ in Myotubes, signal relative to DMSO, 40 uM): 0.946
Cc1nc2c(cnn2-c2ccccc2)c(=O)n1/N=C/c1ccccc1 [MLS000860538-01] | 1.001 | 0.9613 | 1.017 | 0.9667 | 1.02 | 1.033 | 1.078 | 1.115 | 0.958 | 0.9783 | 0.985 | 1.102 | 1.319 | 1.412 | 0.9635 | 0.9403 | –
